The source of these data is patent US20250082665A1, “EYE DROP FORMULATIONS IN THE FORM OF AN AQUEOUS SOLUTION COMPRISING 8-OXO-2'-DEOXYGUANOSINE OR A PHARMACEUTICALLY ACCEPTABLE SALT THEREOF” (RUDACURE CORPORATION, priority 2023, published 2025).

Series [1] is described as follows: water solubility / solubilization of the compound of Formula 1. Format: physicochemical.
Another series has as its system corneal injuries. The settings on record: cited from earlier work.

Usually solubility stands for the dissolved amount per volume that the medium holds. A low value points to little dissolved substance. Take `Nc1nc2c(nc(O)n2[C@H]2C[C@H](O)[C@@H](CO)O2)c(=O)[nH]1` [compound of Formula 1, 8-oxo-2′-deoxyguanosine]: in series [1] (solubilized by heating, stored at room temperature), the “behaviour of aqueous solution obtained by heating when stored at room temperature” value is listed as “precipitates”. In series [1] (water, room temperature (about 25° C.)), the solubility amounted to 1910 µg/mL. Further, the corneal epithelial restoration entry in the series with corneal injuries is “rapid corneal epithelial restoration”.
